These results are taken from patent publication US7459277B2, “Mammalian T1R3 sweet taste receptors” (The Regents of the University of California, priority 2003, dated 2008).

Test [1] concerns HEK-293 cells. Briefly: Ca-imaging, receptor independent rises in [Ca2+]i. Type of test: cell-based, human. To be noted: high concentrations of sugar. As to the method:
Modified HEK-293 cells (PEAK^rapid cells; Edge BioSystems, Md.) were grown, transfected with […] and promiscuous G-proteins and assayed for functional responses to tastants by Ca-imaging essentially as described previously (Nelson, G. et al., Cell, 106, 381-390 (2001)). Minor differences in FURA-2 loading and Ca-imaging included using 199(H) Medium (Biosource) containing 0.1% BSA, 100 μM EGTA and 200 μM CaCl2 as assay buffer as well as reducing the time allowed for FURA-AM ester cleavage to 10 minutes. The imaging system was an Olympus IX50 microscope equipped with a 10×/0.5 N.A. fluor objective (Zeiss), the TILL imaging system (TILL Photonics GmbH), and a cooled CCD camera. Acquisition and analysis of fluorescence images used TILL-Vision software. To optimize coupling of […]-responses to changes in [Ca^2+]i, C-terminal residues of human Gα16 (Offermanns, S., and Simon, M. I., J Biol Chem, 270, 15175-15180 (1995)) were replaced with the corresponding residues from Gz (Mody, S. M. et al., Mol Pharmacol, 57, 13-23 (2000)), gustducin (McLaughlin, S. K. et al., Nature, 357, 563-569 (1992)) or Gαi2. […] Cell lines stably expressing T1R3 and Ggust-25 were established using puromycin and Zeocin (Invitrogen) selection. Three independent lines expressing T1R3 and Ggust-25 were used to examine the specificity and dose response of the T1R3 receptor.

Test [2] relates to T1R knockout mice. As to the kind of experiment: Brief access taste test (lick rate relative to control) in wild-type and T1R knockout mice. Type of test: in vivo, mouse. To be noted: for behavioral responses, effect of T1R knockouts: T1R1, T1R2, T1R3 knockout versus wild-type.
From the text: Two complementary strategies were used to assay the taste responses of the genetically modified mice. First, we recorded tastant-induced action potentials from one of the major nerves innervating taste receptor cells of the tongue (chorda tympani). This physiological assay monitors the activity of the taste system at the periphery, and provides a measure of taste receptor cell function. Second, we examined taste behavior by measuring taste-choices in standard long-term two-bottle intake preference assays, or by direct counting of immediate licking responses in a multi-channel gustometer (Glendinning, J. I. et al., Chem Senses, 27, 461-474 (2002); Zhang, Y. et al., Cell, 112, 293-301 (2003); see Experimental Procedures). This second method relies on very short exposures to tastants (5 s events over a total of 30 min versus 48 hrs for two-bottle preference assays), and therefore has the great advantage of minimizing the impact of other sensory inputs, and post-ingestive and learning effects from the assay.
Taste behavior was assayed using a short term assay that directly measures taste preferences by counting immediate licking responses in a multi-channel gustometer (Davis MS160-Mouse gustometer; DiLog Instruments, Tallahassee, Fla.). Mice were trained and tested as described previously (Zhang, Y. et al., Cell, 112, 293-301 (2003)). Individual mice were placed in the gustometer for 30 minutes, and stimuli were presented in random order for 5 s trials that were initiated by the mouse licking the stimulus spout. […] Data points represent the mean rate that mice licked a tastant relative to their sampling of an appropriate control tastant (ratio defined as lick rate relative to control); lick suppression is defined as 1 minus the lick rate relative to control.
Test [3] deals with T1R knockout mice. As to the kind of experiment: Chorda tympani nerve recordings in wild-type and T1R knockout mice. Type of test: in vivo, mouse. To be noted: for neural responses (chorda tympani): wild-type, T1R1, T1R2 and T1R3 knockout mice, 100 mM citric acid, 100 mM NaCl, 10 mM PROP; for physiological (nerve) responses: T1R3 KO mice, salt effects minimized; for physiological responses, effect of T1R knockouts: T1R1, T1R2, T1R3 knockout versus wild-type.

Test [4] concerns T1R1+3. To be noted: cited from earlier work; for activation of T1R1+3: psychophysically relevant concentrations.
Test [5] concerns T1R2 KO mice expressing a human T1R2 gene. Briefly: Behavioral taste responses of mice expressing a human T1R2 transgene. It counts as in vivo, mouse. The note with it: for behavioral response to human sweet tastants: humanized T1R2 mice (T1R2 KO + hT1R2 transgene), monellin ~10 uM, thaumatin ~5 uM, aspartame 10 mM, glycyrrhizic acid 500 uM, neohesperidin dihydrochalcone 400 uM.
The subject of test [6] is humans. To be noted: sub-millimolar concentrations; cited from earlier work.
Test [7] relates to rodents. The note with it: 100 times higher concentrations than sweet to humans; cited from earlier work.
Test [8] addresses T1, mouse T1R3 GPCR (Mus musculus, UniProt Q925D8).
T1 construct: expressed in transfected cells
T1 sequence (Q925D8 21-858): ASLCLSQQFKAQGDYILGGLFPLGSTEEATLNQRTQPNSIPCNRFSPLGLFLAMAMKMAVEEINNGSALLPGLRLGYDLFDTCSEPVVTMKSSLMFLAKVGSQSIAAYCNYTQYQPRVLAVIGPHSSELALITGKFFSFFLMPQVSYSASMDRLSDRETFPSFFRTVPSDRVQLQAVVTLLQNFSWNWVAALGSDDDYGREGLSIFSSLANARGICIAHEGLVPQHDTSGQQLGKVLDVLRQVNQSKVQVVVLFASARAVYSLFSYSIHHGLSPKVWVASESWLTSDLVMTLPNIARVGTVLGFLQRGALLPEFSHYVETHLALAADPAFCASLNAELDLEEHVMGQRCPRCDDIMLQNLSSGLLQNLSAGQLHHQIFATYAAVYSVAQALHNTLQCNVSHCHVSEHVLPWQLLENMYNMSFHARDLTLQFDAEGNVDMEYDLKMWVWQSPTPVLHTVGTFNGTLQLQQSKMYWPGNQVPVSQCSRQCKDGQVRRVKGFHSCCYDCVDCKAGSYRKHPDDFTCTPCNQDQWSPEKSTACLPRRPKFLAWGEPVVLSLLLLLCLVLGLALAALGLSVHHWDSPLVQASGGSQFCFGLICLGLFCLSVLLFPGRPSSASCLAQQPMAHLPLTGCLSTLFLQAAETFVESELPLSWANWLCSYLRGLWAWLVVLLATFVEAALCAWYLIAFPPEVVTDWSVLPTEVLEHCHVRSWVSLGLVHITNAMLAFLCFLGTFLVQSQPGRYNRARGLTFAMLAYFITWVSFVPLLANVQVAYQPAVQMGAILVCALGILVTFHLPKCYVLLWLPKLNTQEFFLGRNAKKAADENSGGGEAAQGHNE
Briefly: Ca-imaging of HEK-293 cells expressing T1R3 and Ggust-25. It counts as cell-based. To be noted: for T1R3 and Ggust-25 dependent responses: >300 mM, three independent stable lines.

In test [9] the target is T2, T1R2+3 (Mus musculus, UniProt Q925D8+Q925I4).
T2 construct: expressed in transfected cells; host or cells: modified HEK-293 cells (PEAKrapid)
T2 sequence (Q925I4 20-843): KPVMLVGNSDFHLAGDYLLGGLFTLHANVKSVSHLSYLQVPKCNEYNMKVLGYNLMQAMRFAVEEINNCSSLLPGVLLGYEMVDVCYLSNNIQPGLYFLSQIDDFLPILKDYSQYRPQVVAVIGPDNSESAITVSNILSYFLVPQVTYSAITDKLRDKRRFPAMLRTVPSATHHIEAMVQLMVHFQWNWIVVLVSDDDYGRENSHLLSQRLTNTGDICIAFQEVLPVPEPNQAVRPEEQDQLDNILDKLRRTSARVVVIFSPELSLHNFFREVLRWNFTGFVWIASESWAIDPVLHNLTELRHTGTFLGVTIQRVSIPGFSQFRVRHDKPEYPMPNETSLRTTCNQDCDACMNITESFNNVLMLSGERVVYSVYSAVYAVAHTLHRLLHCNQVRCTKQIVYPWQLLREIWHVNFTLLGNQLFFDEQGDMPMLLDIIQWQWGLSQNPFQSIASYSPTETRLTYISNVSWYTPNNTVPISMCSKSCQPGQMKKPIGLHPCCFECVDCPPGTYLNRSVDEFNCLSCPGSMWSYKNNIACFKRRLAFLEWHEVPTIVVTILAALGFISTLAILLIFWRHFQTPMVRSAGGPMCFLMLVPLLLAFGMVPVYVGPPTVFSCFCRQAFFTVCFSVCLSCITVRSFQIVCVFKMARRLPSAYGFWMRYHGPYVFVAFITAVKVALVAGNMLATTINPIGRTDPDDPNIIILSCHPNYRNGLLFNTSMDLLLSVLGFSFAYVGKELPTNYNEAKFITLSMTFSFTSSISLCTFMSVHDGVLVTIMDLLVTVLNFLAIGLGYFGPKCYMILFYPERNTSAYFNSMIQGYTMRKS
T2 sequence (Q925D8 21-858): T1 sequence (Q925D8 21-858)
Briefly: Ca-imaging of HEK-293 cells co-transfected with T1R2 plus T1R3 and Ggust-25. It counts as cell-based. The note with it: control cells expressing T1R2+3.

[10] abbreviates: T1R1 and T1R3 knockout animals, L-Asp 100 mM, AP4 30 mM.
Setting [11] is: T1R3 KO mice, salt effects minimized.

Residues, ends and D or L forms follow the SMILES beside them.

Take `O=C[C@H](O)[C@@H](O)[C@@H](O)[C@H](O)CO` [galactose]: the “receptor independent rises in [Ca2+]i” value in test [1] is “significant receptor independent rises in [Ca^2+]i”.

For `N[C@@H](CO)C(=O)O` [Ser], in [2] (T1R1 KO animals, >300 mM), the behavioral attraction result is “small residual attraction”.

Consider `CCCc1cc(=O)[nH]c(=S)[nH]1` [PROP, 6-n-propyl-thiouracil], for which the “neural responses (chorda tympani)” value in [3] is “robust neural responses”.

Consider `N[C@@H](CC(=O)O)C(=O)O` [L-Asp, aspartic acid], for which the “taste preference relative to water” value in [2] (setting [10]) is “complete loss in preference”. Besides, the behavioral attraction entry in test [2] (setting [11]) is recorded as “dramatic loss of behavioral attraction”. Further, the “physiological (nerve) responses” value in [3] was “profound corresponding deficit in physiological responses”. Also, in [4], the “activation of T1R1+3” value is recorded as “activated”.

Regarding `NC(CCP(=O)(O)O)C(=O)O` (stereo not shown) [AP4], in test [2] (setting [10]), the “taste preference relative to water” value is reported as “complete loss in preference”. The “activation of T1R1+3” value in [4] is listed as “activated”.

Take `N[C@@H](CCC(=O)O)C(=O)[O-].[Na+]` [MSG, monosodium glutamate]: in [2] (setting [10]), the “taste preference relative to water” value is “complete loss in preference”. Moreover, in test [3] (T1R1 and T1R3 knockouts, high concentration of salt (100 mM MSG)), the “integrated chorda tympani response” value is “residual responses are detected”.

Consider `COC(=O)[C@H](Cc1ccccc1)NC(=O)[C@@H](N)CC(=O)O` [aspartame] (H-Asp-Phe-OMe), for which the behavioral attraction result in test [5] (10 mM, three independent human T1R2 transgenic lines) is given as “displayed behavioral attraction”. Moreover, the “behavioral response to human sweet tastants” value in test [5] is “ability to detect and respond”. Moreover, the “sweet taste to humans” value in test [6] was “taste sweet”. Besides, the preference in rodents result in [7] is reported as “no preference”.

For `O=C1NS(=O)(=O)c2ccccc21` [saccharin], the “[Ca2+]i response” value is “No responses were detected” in test [8] (300 mM saccharin) and “respond robustly” in test [9] (30 mM saccharin).

As to `O=C(CO)[C@@H](O)[C@H](O)[C@H](O)CO` [fructose], the “receptor independent rises in [Ca2+]i” value in [1] is “significant receptor independent rises in [Ca^2+]i”.

For `OC[C@H]1O[C@H](O[C@H]2O[C@H](CO)[C@@H](O)[C@H](O)[C@H]2O)[C@H](O)[C@@H](O)[C@@H]1O` [trehalose], the “receptor independent rises in [Ca2+]i” value in [1] is “significant receptor independent rises in [Ca^2+]i”.

On to `CC1(C)[C@@H](O[C@H]2O[C@H](C(=O)O)[C@@H](O)[C@H](O)[C@H]2O[C@@H]2O[C@H](C(=O)O)[C@@H](O)[C@H](O)[C@H]2O)CC[C@]2(C)[C@H]3C(=O)C=C4[C@@H]5C[C@@](C)(C(=O)O)CC[C@]5(C)CC[C@@]4(C)[C@]3(C)CC[C@@H]12` [glycyrrhizic acid], for which the “behavioral response to human sweet tastants” value in [5] was “ability to detect and respond”.

Regarding `C[C@@H](O)[C@H](N)C(=O)O` [Thr], the behavioral attraction entry in test [2] (T1R1 KO animals, >300 mM) is “small residual attraction”.

Turning to `[Cl-].[Na+]` [NaCl, sodium chloride], the “behavioral responses, effect of T1R knockouts” value in test [2] is recorded as “no significant effect”. Further, in [3], the “physiological responses, effect of T1R knockouts” value is given as “no significant effect” and the “neural responses (chorda tympani)” value was “robust neural responses”.

Take `OC[C@H]1O[C@H](O[C@H]2[C@H](O)[C@@H](O)C(O)O[C@@H]2CO)[C@H](O)[C@@H](O)[C@@H]1O` (mixture of isomers) [maltose]: in test [8], the “T1R3 and Ggust-25 dependent responses” value is listed as “dose dependent responses”. Besides, the “taste preference relative to water” value in test [2] (T1R2 and T1R3 knockout animals) is “residual responses”.

Regarding `C[C@H](N)C(=O)O` [Ala], the behavioral attraction result in test [2] (T1R1 KO animals, >300 mM) is “small residual attraction”.

`N[C@@H](CCC(=O)O)C(=O)O` [glutamate]: in [2] (setting [11]), the behavioral attraction entry is “dramatic loss of behavioral attraction”. Further, the “physiological (nerve) responses” value in test [3] is “profound corresponding deficit in physiological responses”.

In the case of `Nc1nc2c(ncn2[C@@H]2O[C@H](COP(=O)(O)O)[C@@H](O)[C@H]2O)c(=O)[nH]1` [GMP], the “enhancement of T1R1+3 activity” value in test [4] is listed as “reliably enhanced”.

For the molecule `OC[C@H]1O[C@@](CO)(O[C@H]2O[C@H](CO)[C@@H](O)[C@H](O)[C@H]2O)[C@@H](O)[C@@H]1O` [sucrose], in test [8] (500 mM sucrose), the “increases in [Ca2+]i (FURA-2)” value was “increases in [Ca^2+]i”. For the same molecule, in test [8], the “T1R3 and Ggust-25 dependent responses” value is listed as “dose dependent responses”. In [9] (300 mM sucrose), the “[Ca2+]i response” value was “respond robustly”. For the same molecule, the “taste preference relative to water” value in test [2] (T1R2 and T1R3 knockout animals) was “residual responses”.

Take `O=C(O)CC(O)(CC(=O)O)C(=O)O` [citric acid]: the “behavioral responses, effect of T1R knockouts” value in test [2] is “no significant effect”. Also, in [3], the “physiological responses, effect of T1R knockouts” value is recorded as “no significant effect” and the “neural responses (chorda tympani)” value is “robust neural responses”.

B1: monellin (protein)
chain 1: FREIKGYEYQLYVYASDKLFRADISEDYKTRGRKLLRFNGPVPPP
chain 2: GEWEIIDIGPFTQNLGKFAVDEENKIGQYGRLTFNKVIRPCMKKTIYEEN
notes: sweet protein
In the case of B1, in test [5], the “behavioral response to human sweet tastants” value was “ability to detect and respond”. Also, in [6], the “sweet taste to humans” value is listed as “taste sweet”. Besides, the preference in rodents entry in test [7] is reported as “no preference”.

B2: thaumatin (protein)
chain: ATFEIVNRCSYTVWAAASKGDAALDAGGRQLNSGESWTINVEPGTNGGKIWARTDCYFDDSGSGICKTGDCGGLLRCKRFGRPPTTLAEFSLNQYGKDYIDISNIKGFNVPMDFSPTTRGCRGVRCAADIVGQCPAKLKAPGGGCNDACTVFQTSEYCCTTGKCGPTEYSRFFKRLCPDAFSYVLDKPTTVTCPGSSNYRVTFCPTA
notes: sweet protein
As to B2, the “behavioral response to human sweet tastants” value in [5] is “ability to detect and respond”. Also, the “sweet taste to humans” value in test [6] was “taste sweet”. Also, the preference in rodents result in test [7] is given as “no preference”.
